In US20240092784A1, “CONDENSED HETEROCYCLIC COMPOUND” (NISSAN CHEMICAL CORPORATION, priority 2020, published 2024) one finds IC50 data, which are given here for 25 compounds.

human SPR, sequence (P35270 whole entry): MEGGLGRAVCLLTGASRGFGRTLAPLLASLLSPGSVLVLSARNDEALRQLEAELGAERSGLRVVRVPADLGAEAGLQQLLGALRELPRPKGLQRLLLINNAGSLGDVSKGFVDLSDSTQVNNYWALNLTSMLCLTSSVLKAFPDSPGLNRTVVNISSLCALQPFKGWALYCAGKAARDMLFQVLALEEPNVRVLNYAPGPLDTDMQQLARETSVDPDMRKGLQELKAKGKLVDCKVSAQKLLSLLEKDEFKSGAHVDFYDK

The first assay has as its target human SPR (Homo sapiens (Human), UniProt P35270). Kind of assay: Evaluation Example 2: Measurement of human SPR inhibitory activity (seven concentrations, sepiapterin absorbance at 420 nm). The conditions noted are these: Evaluation Example 2, seven concentrations 0.14 nM to 100 nM, 240 minutes at room temperature, read-out: IC50. It is filed as biochemical. The method in brief:
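His-tagged full-length human SPR (1-261) was expressed in E. coli and the tag removed. Enzyme at 150 ng/mL in 100 mM Tris-HCl pH 7.5/0.01% BSA was mixed with compound (0.14–100 nM, seven points), 120 μM sepiapterin and 160 μM NADPH, both as added-solution concentrations. After 240 min at room temperature, remaining sepiapterin was read at 420 nm to give percent inhibition.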
`CC(C)Cn1c(=O)c(C(=O)NC2CC2)c(O)n2ncc(/C=C/C(=O)N3CCCOCC3)c12` [compound 461, (E)-3-(3-(1,4-Oxazepan-4-yl)-3-oxoprop-1-en-1-yl)-N-cyclopropyl-7-hydroxy-4-isobutyl-5-oxo-4,5-dihydropyrazolo[1,5-a]pyrimidine-6-carboxamide]: the IC50 is 750 pM.

On to `Cc1nn2c(O)c(C(=O)NC3CC3)c(=O)n(CC(C)C)c2c1/C=C/C(=O)N1CCCC12CC2` [Synthesis Example 652, (E)-N-Cyclopropyl-7-hydroxy-4-isobutyl-2-methyl-5-oxo-3-(3-oxo-3-(4-azaspiro[2.4]heptan-4-yl)prop-1-en-1-yl)-4,5-dihydropyrazolo[1,5-a]pyrimidine-6-carboxamide], for which the IC50 stood at 2180 pM.

Consider `COC(C)(C)Cn1c(=O)c(C(=O)NC2CC2)c(O)n2nc(C(N)=O)cc12` [Synthesis Example 275, N6-Cyclopropyl-7-hydroxy-4-(2-methoxy-2-methylpropyl)-5-oxo-4,5-dihydropyrazolo[1,5-a]pyrimidine-2,6-dicarboxamide], for which the IC50 was 680 pM.

In the case of `CC(C)Cn1c(=O)c(C(=O)NC2CC2)c(O)n2ncc(/C=C/C(=O)N3CCS(=O)(=O)CC3)c12` [compound 514, (E)-N-Cyclopropyl-3-(3-(1,1-dioxidothiomorpholino)-3-oxoprop-1-en-1-yl)-7-hydroxy-4-isobutyl-5-oxo-4,5-dihydropyrazolo[1,5-a]pyrimidine-6-carboxamide], the IC50 turned out to be 580 pM.

Consider `CC(C)Cn1c(=O)c(C(=O)NC2CC2)c(O)n2ncc(/C=C/C(=O)N3CCC(C(F)F)C3)c12` (racemic) [compound 596, (E)-N-Cyclopropyl-3-(3-(3-(difluoromethyl)pyrrolidin-1-yl)-3-oxoprop-1-en-1-yl)-7-hydroxy-4-isobutyl-5-oxo-4,5-dihydropyrazolo[1,5-a]pyrimidine-6-carboxamide (racemate)], for which the IC50 turned out to be 960 pM.

Turning to `Cc1nn2c(O)c(C(=O)NC3CC3)c(=O)n(CC(C)C)c2c1/C=C/C(=O)N1CCC2CC21` (racemic) [compound 609, (E)-3-(3-(2-Azabicyclo[3.1.0]hexan-2-yl)-3-oxoprop-1-en-1-yl)-N-cyclopropyl-7-hydroxy-4-isobutyl-2-methyl-5-oxo-4,5-dihydropyrazolo[1,5-a]pyrimidine-6-carboxamide (racemate)], the IC50 was found to be 1230 pM.

For the compound `CO[C@H]1CCN(C(=O)/C=C/c2c(C)nn3c(O)c(C(=O)NC4CC4)c(=O)n(CC(C)C)c23)C1` [compound 577, (S,E)-N-Cyclopropyl-7-hydroxy-4-isobutyl-3-(3-(3-methoxypyrrolidin-1-yl)-3-oxoprop-1-en-1-yl)-2-methyl-5-oxo-4,5-dihydropyrazolo[1,5-a]pyrimidine-6-carboxamide], the IC50 is 1100 pM.

For the compound `Cc1cnc(-c2cc3n(CC(C)(C)C)c(=O)c(C(=O)NC4CC4)c(O)n3n2)cn1` [Synthesis Example 303, N-Cyclopropyl-7-hydroxy-2-(5-methylpyrazin-2-yl)-4-neopentyl-5-oxo-4,5-dihydropyrazolo[1,5-a]pyrimidine-6-carboxamide], the IC50 is 2580 pM.

Take `CC(C)Cn1c(=O)c(C(=O)NC2CC2)c(O)n2ncc(/C=C/C(=O)N3CCOC(C)(C)C3)c12` [compound 489, (E)-N-Cyclopropyl-3-(3-(2,2-dimethylmorpholino)-3-oxoprop-1-en-1-yl)-7-hydroxy-4-isobutyl-5-oxo-4,5-dihydropyrazolo[1,5-a]pyrimidine-6-carboxamide]: the IC50 is 930 pM.

Consider `CC(C)Cn1c(=O)c(C(=O)NC2CCC2)c(O)n2ncc(/C=C/C(=O)N3CCOCC3)c12` [compound 527, (E)-N-Cyclobutyl-7-hydroxy-4-isobutyl-3-(3-morpholino-3-oxoprop-1-en-1-yl)-5-oxo-4,5-dihydropyrazolo[1,5-a]pyrimidine-6-carboxamide], for which the IC50 is 740 pM.

`Cc1nn2c(O)c(C(=O)NC3CC3)c(=O)n(CC(C)C)c2c1/C=C/C(=O)N1C[C@@H](F)[C@H](F)C1` (racemic) [Synthesis Example 649, N-Cyclopropyl-3-((E)-3-(trans-3,4-difluoropyrrolidin-1-yl)-3-oxoprop-1-en-1-yl)-7-hydroxy-4-isobutyl-2-methyl-5-oxo-4,5-dihydropyrazolo[1,5-a]pyrimidine-6-carboxamide]: the IC50 came out at 730 pM.

With `CC(C)Cn1c(=O)c(C(=O)NC2CC2)c(O)n2ncc(/C=C/C3CC3)c12` [Synthesis Example 246, (E)-N-Cyclopropyl-3-(2-cyclopropylvinyl)-7-hydroxy-4-isobutyl-5-oxo-4,5-dihydropyrazolo[1,5-a]pyrimidine-6-carboxamide], the IC50 amounted to 1190 pM.

For `CC(C)Cn1c(=O)c(C(=O)NC2CC2)c(O)n2ncc(/C=C/C(=O)N3CCC(OC(F)(F)F)CC3)c12` [compound 465, (E)-N-Cyclopropyl-7-hydroxy-4-isobutyl-5-oxo-3-(3-oxo-3-(4-(trifluoromethoxy)piperidin-1-yl)prop-1-en-1-yl)-4,5-dihydropyrazolo[1,5-a]pyrimidine-6-carboxamide], the IC50 was found to be 1760 pM.

Regarding `CC(Cn1c(=O)c(C(=O)NC2CC2)c(O)n2ncc(/C=C/C(=O)N3CCOCC3)c12)C(F)(F)F` (single isomer, unassigned) [Synthesis Example 388, (E)-N-Cyclopropyl-7-hydroxy-3-(3-morpholino-3-oxoprop-1-en-1-yl)-5-oxo-4-(3,3,3-trifluoro-2-methylpropyl)-4,5-dihydropyrazolo[1,5-a]pyrimidine-6-carboxamide], the IC50 is 1530 pM.

Regarding `CC(C)Cn1c(=O)c(C(=O)NC2CC2)c(O)n2nc3c(c12)CCC(=O)N3` [Synthesis Example 404, N-Cyclopropyl-4-hydroxy-1-isobutyl-2,8-dioxo-1,2,7,8,9,10-hexahydropyrido[2′,3′:3,4]pyrazolo[1,5-a]pyrimidine-3-carboxamide], the IC50 amounted to 630 pM.

`Cc1nn2c(O)c(C(=O)NC3CC3)c(=O)n(CC(C)C)c2c1/C=C/C(=O)N1CCC(C(F)F)C1` (stereo not shown) [Synthesis Example 622, (E)-N-Cyclopropyl-3-(3-(3-(difluoromethyl)pyrrolidin-1-yl)-3-oxoprop-1-en-1-yl)-7-hydroxy-4-isobutyl-2-methyl-5-oxo-4,5-dihydropyrazolo[1,5-a]pyrimidine-6-carboxamide]: the IC50 was 1030 pM.

In the case of `CC(C)(C)Cn1c(=O)c(C(=O)NC2CC2)c(O)n2nc3c(c12)CN(C1CC1)C(=O)N3` [Synthesis Example 408, N,3-Dicyclopropyl-8-hydroxy-5-neopentyl-2,6-dioxo-1,2,3,4,5,6-hexahydropyrazolo[1,5-a:3,4-d′]dipyrimidine-7-carboxamide], the IC50 is 830 pM.

For `C/C(=C\c1cnn2c(O)c(C(=O)NC3CC3)c(=O)n(CC(C)C)c12)C(=O)O` [Synthesis Example 252, (E)-3-(6-(Cyclopropylcarbamoyl)-7-hydroxy-4-isobutyl-5-oxo-4,5-dihydropyrazolo[1,5-a]pyrimidin-3-yl)-2-methylacrylic acid], the IC50 was determined as 7110 pM.

Consider `CC(C)(C)Cn1c(=O)c(C(=O)NC2CC2)c(O)n2nc(CN3CCCCC3)cc12` [Synthesis Example 274, N-Cyclopropyl-7-hydroxy-4-neopentyl-5-oxo-2-(piperidin-1-ylmethyl)-4,5-dihydropyrazolo[1,5-a]pyrimidine-6-carboxamide], for which the IC50 is 9460 pM.

With `CC(C)Cn1c(=O)c(C(=O)NC2CC2)c(O)n2nc(C(N)=O)c(/C=C/C3CCOCC3)c12` [compound 451, (E)-N6-Cyclopropyl-7-hydroxy-4-isobutyl-5-oxo-3-(2-(tetrahydro-2H-pyran-4-yl)vinyl)-4,5-dihydropyrazolo[1,5-a]pyrimidine-2,6-dicarboxamide], the IC50 was found to be 690 pM.

Staying with this assay, now noted: sepiapterin absorbance, Table 41, read-out: concentration at 50% inhibition of human SPR (IC50).
Consider `Cc1nn2c(O)c(C(=O)NC3CC3)c(=O)n(CC(C)C)c2c1/C=C/C(=O)N1C[C@@H]2C[C@H]1CO2` [Synthesis Example 753, 3-((E)-3-((1S,4S)-2-Oxa-5-azabicyclo[2.2.1]heptan-5-yl)-3-oxoprop-1-en-1-yl)-N-cyclopropyl-7-hydroxy-4-isobutyl-2-methyl-5-oxo-4,5-dihydropyrazolo[1,5-a]pyrimidine-6-carboxamide], for which the IC50 stood at 480 pM.

For `CC(C)Cn1c(=O)c(C(=O)NC2CC2)c(O)n2ncc(/C=C/C(=O)N3C[C@@H](F)[C@H](F)C3)c12` (racemic) [Synthesis Example 723, N-Cyclopropyl-3-((E)-3-(trans-3,4-difluoropyrrolidin-1-yl)-3-oxoprop-1-en-1-yl)-7-hydroxy-4-isobutyl-5-oxo-4,5-dihydropyrazolo[1,5-a]pyrimidine-6-carboxamide (racemate)], the IC50 was 690 pM.

`CC(C)Cn1c(=O)c(C(=O)NC2CC2)c(O)n2ncc(/C=C/C(=O)N3CCCC34CCN(C)CC4)c12` [Synthesis Example 736, (E)-N-Cyclopropyl-7-hydroxy-4-isobutyl-3-(3-(8-methyl-1,8-diazaspiro[4.5]decan-1-yl)-3-oxoprop-1-en-1-yl)-5-oxo-4,5-dihydropyrazolo[1,5-a]pyrimidine-6-carboxamide]: the IC50 was 1070 pM.

`Cc1nn2c(O)c(C(=O)NC3CC3)c(=O)n(CC(C)(C)F)c2c1/C=C/C(=O)N1CCOCC1` [Synthesis Example 747, (E)-N-Cyclopropyl-4-(2-fluoro-2-methylpropyl)-7-hydroxy-2-methyl-3-(3-morpholino-3-oxoprop-1-en-1-yl)-5-oxo-4,5-dihydropyrazolo[1,5-a]pyrimidine-6-carboxamide]: the IC50 came out at 740 pM.

`CC(C)Cn1c(=O)c(C(=O)NC2CC2)c(O)n2ncc(/C=C/C(=O)N(C)Cc3ccccn3)c12` [Synthesis Example 710, (E)-N-Cyclopropyl-7-hydroxy-4-isobutyl-3-(3-(methyl(pyridin-2-ylmethyl)amino)-3-oxoprop-1-en-1-yl)-5-oxo-4,5-dihydropyrazolo[1,5-a]pyrimidine-6-carboxamide]: the IC50 was determined as 1010 pM.
